Experimental data from PubChem BioAssay (NCI).
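In this assay, cells in 96-well plates receive the compound at five concentrations for 48 hours. Endpoints are linearly interpolated between the surrounding concentrations. TGI is the concentration that stops growth completely.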

How the values were obtained:
Experiment in all cases: DTP human tumour cell line panel, 48 h
786-0 renal = tested on: 786-0 renal
A498 renal = tested on: A498 renal
A549 NSCLC = tested on: A549 NSCLC
ACHN renal = tested on: ACHN renal
BT-549 breast = tested on: BT-549 breast
CAKI-1 renal = tested on: CAKI-1 renal
CCRF-CEM leukemia = tested on: CCRF-CEM leukemia
COLO 205 colon = tested on: COLO 205 colon
DU-145 prostate = tested on: DU-145 prostate
EKVX NSCLC = tested on: EKVX NSCLC
HCC-2998 colon = tested on: HCC-2998 colon
HCT-116 colon = tested on: HCT-116 colon
HCT-15 colon = tested on: HCT-15 colon
HL-60(TB) leukemia = tested on: HL-60(TB) leukemia
HOP-92 NSCLC = tested on: HOP-92 NSCLC
HS 578T breast = tested on: HS 578T breast
HT29 colon = tested on: HT29 colon
IGROV1 ovarian = tested on: IGROV1 ovarian
K-562 leukemia = tested on: K-562 leukemia
KM12 colon = tested on: KM12 colon
LOX IMVI melanoma = tested on: LOX IMVI melanoma
M14 melanoma = tested on: M14 melanoma
MALME-3M melanoma = tested on: MALME-3M melanoma
MDA-MB-231 breast = tested on: MDA-MB-231 breast
MDA-MB-435 = tested on: MDA-MB-435
MDA-N = tested on: MDA-N
MOLT-4 leukemia = tested on: MOLT-4 leukemia
NCI-H226 lung = tested on: NCI-H226 lung
NCI-H23 lung = tested on: NCI-H23 lung
NCI-H460 lung = tested on: NCI-H460 lung
NCI-H522 lung = tested on: NCI-H522 lung
NCI/ADR-RES ovarian = tested on: NCI/ADR-RES ovarian
OVCAR-3 ovarian = tested on: OVCAR-3 ovarian
OVCAR-4 ovarian = tested on: OVCAR-4 ovarian
OVCAR-5 ovarian = tested on: OVCAR-5 ovarian
OVCAR-8 ovarian = tested on: OVCAR-8 ovarian
PC-3 prostate = tested on: PC-3 prostate
RPMI-8226 leukemia = tested on: RPMI-8226 leukemia
RXF 393 renal = tested on: RXF 393 renal
SF-268 CNS = tested on: SF-268 CNS
SF-295 CNS = tested on: SF-295 CNS
SK-MEL-2 melanoma = tested on: SK-MEL-2 melanoma
SK-MEL-28 melanoma = tested on: SK-MEL-28 melanoma
SK-MEL-5 melanoma = tested on: SK-MEL-5 melanoma
SK-OV-3 ovarian = tested on: SK-OV-3 ovarian
SN12C renal = tested on: SN12C renal
SNB-19 CNS = tested on: SNB-19 CNS
SNB-75 CNS = tested on: SNB-75 CNS
SR leukemia = tested on: SR leukemia
SW-620 colon = tested on: SW-620 colon
T-47D breast = tested on: T-47D breast
TK-10 renal = tested on: TK-10 renal
U251 CNS = tested on: U251 CNS
UACC-257 melanoma = tested on: UACC-257 melanoma
UACC-62 melanoma = tested on: UACC-62 melanoma
UO-31 renal = tested on: UO-31 renal
HOP-62 NSCLC = tested on: HOP-62 NSCLC
MCF7 breast = tested on: MCF7 breast
SF-539 CNS = tested on: SF-539 CNS

O=C1c2cccnc2C(=O)c2c1nc1ccccc1c2-c1cncc(-c2c3c(nc4ccccc24)C(=O)c2cccnc2C3=O)c1
TGI (786-0 renal): 0.228 µM
TGI (A498 renal): 5.39 µM
TGI (A549 NSCLC): 2.6 µM
TGI (ACHN renal): 0.437 µM
TGI (BT-549 breast): 1.52 µM
TGI (CAKI-1 renal): 1.64 µM
TGI (CCRF-CEM leukemia): 2.08 µM
TGI (COLO 205 colon): 0.617 µM
TGI (DU-145 prostate): 0.565 µM
TGI (EKVX NSCLC): 1.73 µM
TGI (HCC-2998 colon): 1.47 µM
TGI (HCT-116 colon): 0.352 µM
TGI (HCT-15 colon): 0.414 µM
TGI (HL-60(TB) leukemia): 0.478 µM
TGI (HOP-92 NSCLC): 5.93 µM
TGI (HS 578T breast): 2.27 µM
TGI (HT29 colon): 1.28 µM
TGI (IGROV1 ovarian): 0.286 µM
TGI (K-562 leukemia): > 24.8 µM
TGI (KM12 colon): 2 µM
TGI (LOX IMVI melanoma): 0.449 µM
TGI (M14 melanoma): 0.576 µM
TGI (MALME-3M melanoma): 1.52 µM
TGI (MDA-MB-231 breast): 0.928 µM
TGI (MDA-MB-435): 0.9 µM
TGI (MDA-N): 0.778 µM
TGI (MOLT-4 leukemia): 0.788 µM
TGI (NCI-H226 lung): 0.883 µM
TGI (NCI-H23 lung): 0.944 µM
TGI (NCI-H460 lung): 0.516 µM
TGI (NCI-H522 lung): 0.784 µM
TGI (NCI/ADR-RES ovarian): 2.1 µM
TGI (OVCAR-3 ovarian): 3.22 µM
TGI (OVCAR-4 ovarian): 1.91 µM
TGI (OVCAR-5 ovarian): 5.9 µM
TGI (OVCAR-8 ovarian): 0.618 µM
TGI (PC-3 prostate): 11 µM
TGI (RPMI-8226 leukemia): 0.808 µM
TGI (RXF 393 renal): 5.48 µM
TGI (SF-268 CNS): 1.25 µM
TGI (SF-295 CNS): 1.62 µM
TGI (SK-MEL-2 melanoma): 4.1 µM
TGI (SK-MEL-28 melanoma): 1.57 µM
TGI (SK-MEL-5 melanoma): 0.52 µM
TGI (SK-OV-3 ovarian): 2.1 µM
TGI (SN12C renal): 0.613 µM
TGI (SNB-19 CNS): 1.57 µM
TGI (SNB-75 CNS): 1.6 µM
TGI (SR leukemia): 0.0608 µM
TGI (SW-620 colon): 0.906 µM
TGI (T-47D breast): 2.91 µM
TGI (TK-10 renal): 2.86 µM
TGI (U251 CNS): 1.22 µM
TGI (UACC-257 melanoma): 1.08 µM
TGI (UACC-62 melanoma): 1.09 µM
TGI (UO-31 renal): 0.946 µM

O=C(NN1C(=O)c2ccccc2C1=O)c1ccccc1Nc1ccccc1C(=O)NN1C(=O)c2ccccc2C1=O
TGI (786-0 renal): > 100 µM
TGI (ACHN renal): > 100 µM
TGI (BT-549 breast): > 100 µM
TGI (CAKI-1 renal): > 100 µM
TGI (CCRF-CEM leukemia): > 100 µM
TGI (COLO 205 colon): > 100 µM
TGI (DU-145 prostate): > 100 µM
TGI (EKVX NSCLC): > 100 µM
TGI (HCC-2998 colon): > 100 µM
TGI (HCT-116 colon): > 100 µM
TGI (HCT-15 colon): > 100 µM
TGI (HL-60(TB) leukemia): > 100 µM
TGI (HOP-62 NSCLC): > 100 µM
TGI (HOP-92 NSCLC): > 100 µM
TGI (HT29 colon): > 100 µM
TGI (IGROV1 ovarian): > 100 µM
TGI (K-562 leukemia): > 100 µM
TGI (KM12 colon): > 100 µM
TGI (LOX IMVI melanoma): > 100 µM
TGI (M14 melanoma): > 100 µM
TGI (MALME-3M melanoma): > 100 µM
TGI (MCF7 breast): > 100 µM
TGI (MDA-MB-231 breast): > 100 µM
TGI (MDA-MB-435): > 100 µM
TGI (MDA-N): > 100 µM
TGI (MOLT-4 leukemia): > 100 µM
TGI (NCI-H226 lung): > 100 µM
TGI (NCI-H23 lung): > 100 µM
TGI (NCI-H460 lung): > 100 µM
TGI (NCI-H522 lung): > 100 µM
TGI (NCI/ADR-RES ovarian): > 100 µM
TGI (OVCAR-3 ovarian): > 100 µM
TGI (OVCAR-4 ovarian): > 100 µM
TGI (OVCAR-5 ovarian): > 100 µM
TGI (OVCAR-8 ovarian): > 100 µM
TGI (PC-3 prostate): > 100 µM
TGI (RPMI-8226 leukemia): > 100 µM
TGI (RXF 393 renal): > 100 µM
TGI (SF-268 CNS): > 100 µM
TGI (SF-295 CNS): > 100 µM
TGI (SF-539 CNS): > 100 µM
TGI (SK-MEL-2 melanoma): > 100 µM
TGI (SK-MEL-28 melanoma): > 100 µM
TGI (SK-MEL-5 melanoma): > 100 µM
TGI (SN12C renal): > 100 µM
TGI (SNB-19 CNS): > 100 µM
TGI (SNB-75 CNS): > 100 µM
TGI (SR leukemia): > 100 µM
TGI (SW-620 colon): > 100 µM
TGI (TK-10 renal): > 100 µM
TGI (U251 CNS): > 100 µM
TGI (UACC-257 melanoma): > 100 µM
TGI (UACC-62 melanoma): > 100 µM
TGI (UO-31 renal): > 100 µM
